“Also recorded” adds a separate entry of the source.
Tests used:
[1] = tested on: white matter hyperintensities (microvascular pathology); test: Phase 3 clinical trials of LMTM in AD: MRI total lesion volume (TLV) of white matter hyperintensities; format: in vivo, human; conditions: for exposure dependence of rate of progression of microvascular pathology: low dose monotherapy, FIG. 6, TLV change from baseline; for estimate: difference in increase in TLV, LMTM monotherapy vs LMTM in combination with AD symptomatic treatments: FIGS. 7A and B, no unit printed at the table; for estimate: difference in increase in Total Lesion volume (TLV), LMTM monotherapy vs LMTM in combination with symptomatic treatments for AD: AD patients, MRI
Excerpt: The design and results from two large Phase 3, double-blind, controlled, randomised clinical trials of hydromethylthionine in probable AD were described elsewhere. Study TRx-237-015 (clintrials.gov NCT01689246), involved 890 mild/moderate AD patients and study TRx-237-005 (clintrials.gov NCT01689233), had 800 patients with mild AD meeting NIA/AA diagnostic criteria for probable AD. Eligible patients were aged less than 90 years. Patients were excluded if they had: a recent history of poorly controlled hypertension, or clinically significant cardiovascular disease (such as hospitalization for acute coronary syndrome or symptoms consistent with angina pectoris), or a modified Hachinski ischemic score of >4. Patients were also excluded if significant vascular pathology was seen on brain MRI, including large confluent white matter hyperintensities that would lead to a diagnosis other than probable AD. A detailed list of all inclusion and exclusion criteria for both trials is available in the supplementary materials. FDG-PET was performed at baseline in only a subgroup of TRx-237-015 subjects (n=198) but was required for all participants in TRx-237-005 if the appropriate imaging facilities were available at the study site. Of 1690 participants enrolled in both studies, 794 had available FDG-PET scans at baseline.
In this trial only GE, Siemens, or Philips (1.5-Tesla and 3.0-Tesla) machines were used to reduce the variability in the imaging data. The MRI sequences utilised in this protocol were based on the ADNI protocol. The recommended range of acquisition parameters for individual sequences for GE, Siemens, and Philips MRI machines were developed after technical evaluation forms from all sites. The following sequences were included: FLAIR: This sequence allows assessment of other clinically significant focal intracranial pathology and for detection and quantification of WMHs; Unenhanced T1-weighted, 3-dimensional sequence (e.g., MP RAGE or SPGR) were used for evaluation of the whole brain, ventricular and hippocampal volumes and WMH.
Brain MRI derived WMHs were quantified using the Lesion Growth Algorithm (LGA) part of the Lesion Segmentation Toolbox (LST [28]) which is an automated method for extracting WMH and has been validated in various datasets. This algorithm uses T1 and FLAIR MR images to classify voxels, with T1 images used to segment tissue classes white matter (WM), grey matter (GM), cerebrospinal fluid (CSF) and fluid attenuated inversion recovery (FLAIR) imaging used to determine areas of hyperintense signal (i.e., WMH). WMH data are provided as whole-brain total lesion volume (TLV), measured in cm^3.
Exposure dependence groups were defined in accordance with the methods described in more detail in WO2020/020751 discussed hereinbefore.

[2] = cited from earlier work
[3] = target: tau aggregation (Homo sapiens, UniProt P10636); conditions: in vitro (LMTM: in vitro and in vivo); cited from earlier work
Sequence of tau aggregation (P10636 whole entry): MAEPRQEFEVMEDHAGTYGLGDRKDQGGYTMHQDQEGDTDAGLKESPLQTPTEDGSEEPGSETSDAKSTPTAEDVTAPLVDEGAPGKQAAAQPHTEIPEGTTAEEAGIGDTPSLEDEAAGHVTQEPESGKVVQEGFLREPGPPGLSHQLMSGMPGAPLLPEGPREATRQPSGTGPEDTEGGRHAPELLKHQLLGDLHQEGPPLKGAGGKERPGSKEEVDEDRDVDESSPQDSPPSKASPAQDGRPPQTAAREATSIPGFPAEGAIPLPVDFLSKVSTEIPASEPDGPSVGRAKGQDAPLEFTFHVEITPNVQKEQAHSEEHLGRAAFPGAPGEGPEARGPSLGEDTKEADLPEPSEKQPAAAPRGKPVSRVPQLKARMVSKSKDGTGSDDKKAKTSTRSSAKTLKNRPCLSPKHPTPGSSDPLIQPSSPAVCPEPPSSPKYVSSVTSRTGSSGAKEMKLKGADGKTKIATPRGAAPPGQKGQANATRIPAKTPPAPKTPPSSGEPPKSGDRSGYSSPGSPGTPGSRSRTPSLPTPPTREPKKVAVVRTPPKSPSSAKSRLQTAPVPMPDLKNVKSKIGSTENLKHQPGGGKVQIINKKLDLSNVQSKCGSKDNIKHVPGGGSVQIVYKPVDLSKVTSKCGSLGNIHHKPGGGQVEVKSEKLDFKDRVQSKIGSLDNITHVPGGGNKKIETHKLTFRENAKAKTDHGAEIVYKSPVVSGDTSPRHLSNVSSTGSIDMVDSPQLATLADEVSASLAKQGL

[4] = tested on: Alzheimer's disease; conditions: monotherapy vs combination with AChEIs and/or memantine; cited from earlier work
[5] = compared with the MT+ form; cited from earlier work
[6] = tested on: tau pathology; conditions: transgenic mouse tau models; brain concentrations consistent with human oral dosing; cited from earlier work
[7] = tested on: PHFs from Alzheimer's disease brain tissue; conditions: cited from earlier work

Compound	exposure dependence of rate of progression of microvascular pathology [1]	pharmaceutic properties: solubility and pKa [2]	tau aggregation inhibitor activity [3]	estimate: difference in increase in TLV, LMTM monotherapy vs LMTM in combination with AD symptomatic treatments ([1]; 4 mg b.i.d. (low dose group))	estimate: difference in increase in Total Lesion volume (TLV), LMTM monotherapy vs LMTM in combination with symptomatic treatments for AD ([1]; 4 mg b.i.d. (low dose)) [mL]	estimate: difference in increase in Total Lesion volume (TLV), LMTM monotherapy vs LMTM in combination with symptomatic treatments for AD ([1]; 100 mg b.i.d. (high dose)) [mL]	estimate: difference in increase in TLV, LMTM monotherapy vs LMTM in combination with AD symptomatic treatments ([1]; 100 mg b.i.d., high dose (mean of high doses, 150-250 mg/day))	increase in Total Lesion volume, monotherapy vs combination with symptomatic treatments for AD ([1]; high dose and low dose groups, statistically significant difference)	treatment benefit in AD according to the trial criteria [4]	absorption [5]	tau pathology and behavioural deficits [6]	dissolution of PHFs [7]
CN(C)c1ccc2c(c1)Sc1cc(N(C)C)ccc1N2 [LMT, N3,N3,N7,N7-tetramethyl-10H-phenothiazine-3,7-diamine]	exposure-dependent reduction in progression of microvascular pathology	–	–	–	–	–	–	–	–	–	–	–
CN(C)c1ccc2c(c1)Sc1cc(N(C)C)ccc1N2.CS(=O)(=O)O.CS(=O)(=O)O [LMTM, N,N,N′,N′-tetramethyl-10H-phenothiazine-3,7-diaminium bis(hydromethanesulfonate)]	exposure-dependent difference in rate of progression of microvascular pathology	superior pharmaceutic properties in terms of solubility and pKa	retains TAI activity in vitro and in vivo	−0.3494	-0.3494	-0.3865	−0.3865	less increase in Total Lesion volume; also recorded: less increase in TLV	restricted to patients taking LMTM as monotherapy	not subject to the absorption limitations of the MT^+ form	–	–
CN(C)c1ccc2nc3ccc(=[N+](C)C)cc-3sc2c1 [MT, Methylthioninium]	–	–	acts as a tau aggregation inhibitor in vitro	–	–	–	–	–	–	–	reduces tau pathology and associated behavioural deficits	dissolves PHFs from Alzheimer's disease brain tissue

— US20260248805A1, “DIAMINOPHENOTHIAZINE FOR THE TREATMENT OF MICROVASCULAR BRAIN DISEASE” (priority 2023, published 2026)
